Measured values taken from PubChem BioAssay (NCI).
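Method: 48-hour compound exposure of cells in 96-well plates, five concentrations, linear interpolation of endpoints. Definition used: TGI = concentration required for complete inhibition of growth.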

What was measured:
Test in all cases: NCI tumour cell line growth inhibition, 48 h
[1] = system: 786-0 renal
[2] = system: A549 NSCLC
[3] = system: ACHN renal
[4] = system: CAKI-1 renal
[5] = system: CCRF-CEM leukemia
[6] = system: COLO 205 colon
[7] = system: DLD-1 colon
[8] = system: DMS 114 small cell lung
[9] = system: EKVX NSCLC
[10] = system: HCC-2998 colon
[11] = system: HCT-116 colon
[12] = system: HL-60(TB) leukemia
[13] = system: HOP-62 NSCLC
[14] = system: HOP-92 NSCLC
[15] = system: HT29 colon
[16] = system: IGROV1 ovarian
[17] = system: K-562 leukemia
[18] = system: KM12 colon
[19] = system: KM20L2 colon
[20] = system: LOX IMVI melanoma
[21] = system: LXFL 529 NSCLC
[22] = system: M14 melanoma
[23] = system: M19-MEL melanoma
[24] = system: MALME-3M melanoma
[25] = system: MOLT-4 leukemia
[26] = system: NCI-H226 lung
[27] = system: NCI-H23 lung
[28] = system: NCI-H460 lung
[29] = system: NCI-H522 lung
[30] = system: OVCAR-3 ovarian
[31] = system: OVCAR-4 ovarian
[32] = system: OVCAR-5 ovarian
[33] = system: OVCAR-8 ovarian
[34] = system: RPMI-8226 leukemia
[35] = system: RXF 393 renal
[36] = system: SF-268 CNS
[37] = system: SF-295 CNS
[38] = system: SF-539 CNS
[39] = system: SK-MEL-2 melanoma
[40] = system: SK-MEL-28 melanoma
[41] = system: SK-MEL-5 melanoma
[42] = system: SK-OV-3 ovarian
[43] = system: SN12C renal
[44] = system: SNB-19 CNS
[45] = system: SNB-75 CNS
[46] = system: SNB-78 CNS
[47] = system: SW-620 colon
[48] = system: TK-10 renal
[49] = system: U251 CNS
[50] = system: UACC-257 melanoma
[51] = system: UO-31 renal
[52] = system: XF 498 CNS
[53] = system: A498 renal
[54] = system: DMS 273 small cell lung
[55] = system: HCT-15 colon
[56] = system: SR leukemia
[57] = system: UACC-62 melanoma

Question: For `CCc1ccccc1NC(=O)C1=C(C)NC(C)=C(C(=O)Nc2c(CC)cccc2CC)C1c1ccc2c(c1)OCO2` (stereo not drawn), which TGI [1] is on record?
Answer: 34.8 µM

Question: What about the TGI [2] of the same molecule?
Answer: 39.2 µM

Question: What about the TGI [3] of the same molecule?
Answer: 35.1 µM

Question: What about the TGI [4] of the same molecule?
Answer: 39.7 µM

Question: What about the TGI [5] of the same molecule?
Answer: 51.4 µM

Question: What about the TGI [6] of the same molecule?
Answer: 44.1 µM

Question: What about the TGI [7] of the same molecule?
Answer: 51.3 µM

Question: And the TGI [8]?
Answer: 53.5 µM

Question: What about the TGI [9] of the same molecule?
Answer: 69.4 µM

Question: What about the TGI [10] of the same molecule?
Answer: 30.2 µM

Question: What about the TGI [11] of the same molecule?
Answer: 30.6 µM

Question: And the TGI [12]?
Answer: 58.4 µM

Question: What about the TGI [13] of the same molecule?
Answer: 35 µM

Question: And the TGI [14]?
Answer: 36.4 µM

Question: What about the TGI [15] of the same molecule?
Answer: 32.2 µM

Question: And the TGI [16]?
Answer: 94.7 µM

Question: What about the TGI [17] of the same molecule?
Answer: 58.7 µM

Question: And the TGI [18]?
Answer: 30.5 µM

Question: What about the TGI [19] of the same molecule?
Answer: 39.3 µM

Question: And the TGI [20]?
Answer: 35.1 µM

Question: What about the TGI [21] of the same molecule?
Answer: 33 µM

Question: And the TGI [22]?
Answer: 33.5 µM

Question: What about the TGI [23] of the same molecule?
Answer: 54.7 µM

Question: What about the TGI [24] of the same molecule?
Answer: 32.5 µM

Question: What about the TGI [25] of the same molecule?
Answer: 57.5 µM

Question: And the TGI [26]?
Answer: 43.4 µM

Question: What about the TGI [27] of the same molecule?
Answer: 31.2 µM

Question: And the TGI [28]?
Answer: 33.8 µM

Question: What about the TGI [29] of the same molecule?
Answer: 30.9 µM

Question: And the TGI [30]?
Answer: 38.4 µM

Question: And the TGI [31]?
Answer: 35.9 µM

Question: And the TGI [32]?
Answer: 36.1 µM

Question: And the TGI [33]?
Answer: 84.5 µM

Question: And the TGI [34]?
Answer: 41.3 µM

Question: And the TGI [35]?
Answer: 25.4 µM

Question: And the TGI [36]?
Answer: 57.6 µM

Question: And the TGI [37]?
Answer: 48.5 µM

Question: And the TGI [38]?
Answer: 40.4 µM

Question: And the TGI [39]?
Answer: 29.5 µM

Question: And the TGI [40]?
Answer: 36.6 µM

Question: What about the TGI [41] of the same molecule?
Answer: 28.5 µM

Question: And the TGI [42]?
Answer: > 100 µM

Question: What about the TGI [43] of the same molecule?
Answer: 74.3 µM

Question: What about the TGI [44] of the same molecule?
Answer: 76.6 µM

Question: What about the TGI [45] of the same molecule?
Answer: > 100 µM

Question: What about the TGI [46] of the same molecule?
Answer: 81.7 µM

Question: And the TGI [47]?
Answer: 43.2 µM

Question: And the TGI [48]?
Answer: 53.5 µM

Question: What about the TGI [49] of the same molecule?
Answer: 30 µM

Question: And the TGI [50]?
Answer: 35.4 µM

Question: What about the TGI [51] of the same molecule?
Answer: 29.8 µM

Question: And the TGI [52]?
Answer: 47.5 µM

Question: For `CCC1=C(CC)C1(C#N)[N+](=O)[O-]`, which TGI [1] is on record?
Answer: > 100 µM

Question: What about the TGI [53] of the same molecule?
Answer: > 100 µM

Question: And the TGI [2]?
Answer: > 100 µM

Question: And the TGI [3]?
Answer: > 100 µM

Question: And the TGI [4]?
Answer: > 100 µM

Question: And the TGI [5]?
Answer: > 100 µM

Question: And the TGI [6]?
Answer: > 100 µM

Question: What about the TGI [7] of the same molecule?
Answer: > 100 µM

Question: What about the TGI [8] of the same molecule?
Answer: > 100 µM

Question: What about the TGI [54] of the same molecule?
Answer: > 100 µM

Question: What about the TGI [9] of the same molecule?
Answer: > 100 µM

Question: What about the TGI [11] of the same molecule?
Answer: > 100 µM

Question: And the TGI [55]?
Answer: > 100 µM

Question: And the TGI [12]?
Answer: > 100 µM

Question: And the TGI [13]?
Answer: > 100 µM

Question: What about the TGI [15] of the same molecule?
Answer: > 100 µM

Question: And the TGI [16]?
Answer: > 100 µM

Question: And the TGI [17]?
Answer: > 100 µM

Question: What about the TGI [18] of the same molecule?
Answer: > 100 µM

Question: What about the TGI [19] of the same molecule?
Answer: > 100 µM

Question: What about the TGI [20] of the same molecule?
Answer: > 100 µM

Question: What about the TGI [21] of the same molecule?
Answer: > 100 µM

Question: And the TGI [22]?
Answer: > 100 µM

Question: What about the TGI [23] of the same molecule?
Answer: > 100 µM

Question: What about the TGI [24] of the same molecule?
Answer: > 100 µM

Question: What about the TGI [25] of the same molecule?
Answer: > 100 µM

Question: What about the TGI [26] of the same molecule?
Answer: > 100 µM

Question: What about the TGI [27] of the same molecule?
Answer: > 100 µM

Question: What about the TGI [28] of the same molecule?
Answer: > 100 µM

Question: What about the TGI [29] of the same molecule?
Answer: > 100 µM

Question: And the TGI [30]?
Answer: > 100 µM

Question: What about the TGI [31] of the same molecule?
Answer: > 100 µM

Question: What about the TGI [32] of the same molecule?
Answer: > 100 µM

Question: And the TGI [33]?
Answer: > 100 µM

Question: And the TGI [34]?
Answer: > 100 µM

Question: And the TGI [36]?
Answer: > 100 µM

Question: What about the TGI [37] of the same molecule?
Answer: > 100 µM

Question: And the TGI [38]?
Answer: > 100 µM

Question: What about the TGI [39] of the same molecule?
Answer: > 100 µM

Question: And the TGI [41]?
Answer: > 100 µM

Question: And the TGI [42]?
Answer: > 100 µM

Question: What about the TGI [43] of the same molecule?
Answer: > 100 µM

Question: And the TGI [44]?
Answer: > 100 µM

Question: And the TGI [46]?
Answer: > 100 µM

Question: And the TGI [56]?
Answer: > 100 µM

Question: What about the TGI [47] of the same molecule?
Answer: > 100 µM

Question: What about the TGI [48] of the same molecule?
Answer: > 100 µM

Question: And the TGI [49]?
Answer: > 100 µM

Question: And the TGI [50]?
Answer: > 100 µM

Question: And the TGI [57]?
Answer: > 100 µM

Question: What about the TGI [51] of the same molecule?
Answer: > 100 µM
